Data: patent US11505558B1, “Antiviral heterocyclic compounds” (Enanta Pharmaceuticals, Inc., priority 2019, dated 2022)

Experiments:
[1] = test system: genotype A, "Long" strain RSV; assay: RSV-A assay (CPE, ATPlite readout in Hep-2 cells); type: cell-based; settings: human respiratory syncytial virus, HEp-2, Hep-2 cells, genotype A "Long" strain RSV, MOI 0.1; read-out: Human RSV-A (“Long” strain) EC50
Outline: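 Hep-2 cells (8,000/well) received 2-fold serial compound dilutions in duplicate and RSV Long strain at MOI 0.1. After 5 days' incubation, cell health was read as ATP by ATPlite luminescence, with virus-only and uninfected controls defining max and minimum CPE; EC50 reported.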

[2] = test system: recombinant HMPV CAN97-83 (MPV-GFP1); assay: HMPV antiviral assay (MPV-GFP1 eGFP fluorescence in Vero E6 cells); type: cell-based; settings: human metapneumovirus, Vero C1008, 120 h, read-out: HMPV EC50
Description: HMPV antiviral activity was evaluated using a recombinant version of HMPV CAN97-83 engineered to contain the coding sequence for enhanced green fluorescence protein (eGFP) in the 3′ end of the virus genome (MPV-GFP1, ViraTree). Vero E6 cells ([…]) were seeded at a density of 12,000 cells/100 μL/well into 96-well cell plates one day prior to the assay. On the day of screening, the cell culture medium was aspirated from the wells and cells were washed twice with serum-free Eagle's Modified Essential Medium (EMEM, ATCC #) containing 1% penicillin-streptomycin (Invitrogen) (SF-EMEM). Cell washes were performed by dispensing 100 μL SF-EMEM per well and immediately aspirating the wash medium from the well. Following the second wash step, serum-free OptiMEM (Invitrogen, Cat No.) (SF-OptiMEM) containing 0.5 μg/mL TPCK-Trypsin (VENDOR) and 1% penicillin-streptomycin was added to the cells at 50 μL/well. Compounds were added into the 96-well plates using a JANUS automated liquid handling system (VENDOR). Compounds were initially diluted 1:50 into an intermediate 96-well plate containing SF-OptiMEM prior to transfer to the assay plate (25 μL/well). Each of the test compounds were tested in duplicate wells at final concentrations starting from 8 μM or 2 μM using ½ stepwise dilutions for a total of 8 points. Virus infection was performed by preparing a working stock of MPV-GFP1 at a multiplicity of infection (MOI) equal to 0.05/25 μL and aliquoting 25 μL of virus inoculum to the compound and positive control wells. SF-OptiMEM was added (25 μL/well) to the appropriate wells to serve as a virus-free negative control for the assay. The final DMSO concentration of all wells is 0.5%. Plates were incubated at 32° C., 5% CO2 for 5 days.
After 5 days incubation, eGFP fluorescence intensity was measured at […] using a Spectramax i3X plate reader (VENDOR). Percent viral inhibition was calculated using the following equation: y=[[…]−(XQ/XP)]×100 Where XQ is the fluorescence intensity measured in a well containing recombinant MPV-GFP1-infected, compound-treated cells and XP is the average fluorescence intensity measured in the wells containing untreated cells infected with recombinant virus. EC50 values were then calculated by non-linear regression using a four parameter curve logistic equation. The curve fit model employed was XLFit Dose Response One Site Model 200: y=(A+(B/(1+((x/C)^D)))) Where A is the minimum y value, B is the maximum y value, C is the log EC50 value, and D is the slope factor. […] EC50 ranges are as follows: A<0.5 μM; B>0.5 μM.

| Compound | EC50 [1] [nM] | EC50 [2] [nM] |
| --- | --- | --- |
| C[C@]1(C(=O)NCCOC(N)=O)COc2c1cc([C@@](O)(CNC(=O)c1cc(OC3CC3)c3ncccc3c1)C(F)(F)F)nc2-c1ccc(F)cc1 [Example 460] | < 200 | > 500 |
| C[C@]1(C(N)=O)COc2c1cc([C@@](O)(CNC(=O)c1cc(OC3CC3)c3nc(CO)ccc3c1)C(F)(F)F)nc2-c1ccc(F)cc1 [Example 406] | < 200 | > 500 |
| COc1cc(C(=O)NC[C@](O)(c2cc3c(c(-c4ccc(F)c(Cl)c4)n2)OC[C@]3(C)C(N)=O)C(F)(F)F)cc2cc(C(F)(F)F)cnc12 [Example 558] | < 200 | < 500 |
| C[C@]1(C(N)=O)COc2c1cc([C@@](O)(CNC(=O)c1cc(OC(F)(F)F)c3nc(N)sc3c1)C(F)(F)F)nc2-c1ccc(F)c(Cl)c1 [Example 542] | < 200 | < 500 |
| CC(=O)Nc1cc(C(=O)NC[C@](O)(c2cc3c(c(-c4ccc(F)cc4)n2)OC[C@]3(C)C(N)=O)C(F)(F)F)cc2cccnc12 [Example 393] | < 200 | < 500 |
| COc1cccc2[nH]c(C(=O)NC[C@](O)(c3cc4c(c(-c5ccc(F)cc5)n3)OC[C@]4(C)C(N)=O)C(F)(F)F)cc12 [Example 595] | < 200 | < 500 |
| COc1cc(C(=O)NC[C@](O)(c2cc3c(c(-c4ccc(F)cc4)n2)OC[C@]3(C)C(N)=O)C(F)(F)F)cc2sc(C)nc12 [Example 562] | < 200 | < 500 |
| C[C@]1(C(N)=O)COc2c1cc([C@@](O)(CNC(=O)c1cc(OC(F)F)c3nc(N)sc3c1)C1CC1)nc2-c1ccc(F)c(Cl)c1 [Example 540] | < 200 | < 500 |
| Cc1ccc2cc(C(=O)NC[C@](O)(c3cc4c(c(-c5ccc(F)cc5)n3)OC[C@]4(C)C(N)=O)C(F)(F)F)cc(NC(=O)C3(F)CC3)c2n1 [Example 627] | < 200 | > 500 |
| C[C@]1(C(N)=O)COc2c1cc([C@@](O)(CNC(=O)c1cc(OC3CC3)c3ncc(Cl)cc3c1)C1CC1)nc2-c1ccc(F)cc1 [Example 530] | < 200 | < 500 |
| C[C@]1(C(=O)NCCO)COc2c1cc([C@@](O)(CNC(=O)c1cc(OC3CC3)c3ncccc3c1)C(F)(F)F)nc2-c1ccc(F)cc1 [Example 465] | < 200 | < 500 |
| Cc1cnc2c(NC(=O)c3cnc(C)o3)cc(C(=O)NC[C@](O)(c3cc4c(c(-c5ccc(F)cc5)n3)OC[C@]4(C)C(N)=O)C(F)(F)F)cc2c1 [Example 624] | < 200 | < 500 |
| Cc1cnc2c(Nc3cccnn3)cc(C(=O)NC[C@](O)(c3cc4c(c(-c5ccc(F)cc5)n3)OC[C@]4(C)C(N)=O)C(F)(F)F)cc2c1 [Example 560] | < 200 | < 500 |
| C[C@@H](O)COc1cc(C(=O)NC[C@](O)(c2cc3c(c(-c4ccc(F)cc4)n2)OC[C@]3(C)C(N)=O)C(F)(F)F)cc2cccnc12 [Example 287] | > 200 | > 500 |
| C[C@]1(C(N)=O)COc2c1cc([C@@](O)(CNC(=O)c1ccc(OC3CC3)c(-c3cncc(C(F)(F)F)c3)c1)C(F)(F)F)nc2-c1ccc(F)cc1 [Example 104] | > 200 | > 500 |
| C[C@]1(C(N)=O)COc2c1cc([C@@](O)(CNC(=O)c1cc(Cl)c3ncccc3c1)C1CC1)nc2-c1ccc(F)cc1 [Example 281] | < 200 | < 500 |
| Cc1ccc2cc(C(=O)NC[C@](O)(c3cc4c(c(-c5ccc(F)cc5)n3)OC[C@]4(C)C(N)=O)C(F)(F)F)cc(OC3CC3)c2n1 [Example 223] | < 200 | < 500 |
| C[C@]1(C(N)=O)COc2c1cc([C@@](O)(CNC(=O)c1ccc3cnccc3c1)C(F)(F)F)nc2-c1ccc(F)cc1 [Example 232] | < 200 | > 500 |
| C[C@]1(C(N)=O)COc2c1cc([C@@](O)(CNC(=O)c1ccc3ncc(F)cc3c1)C(F)(F)F)nc2-c1ccc(F)cc1 [Example 527] | < 200 | > 500 |
| Cc1nc(-c2ccc(C(=O)NC[C@](O)(c3cc4c(c(-c5ccc(F)cc5)n3)OC[C@]4(C)C(N)=O)C(F)(F)F)cc2OC2CC2)co1 [Example 196] | > 200 | > 500 |
| C[C@]1(C(N)=O)COc2c1cc([C@](O)(CNC(=O)c1cc(OC3CC3)c3ncccc3c1)C(F)(F)F)nc2-c1ccc(F)c(C#N)c1 [Example 84] | > 200 | > 500 |

| Compound | EC50 [1] [nM] | EC50 [2] [nM] |
| --- | --- | --- |
| C[C@]1(C(=O)NC[C@H](O)CO)COc2c1cc([C@@](O)(CNC(=O)c1cc(OC3CC3)c3ncccc3c1)C(F)(F)F)nc2-c1ccc(F)cc1 [Example 493] | < 200 | > 500 |
| C[C@]1(C(N)=O)COc2c1cc([C@@](O)(CNC(=O)c1ccc(OC3CC3)c(-c3cnccn3)c1)C(F)(F)F)nc2-c1ccc(F)cc1 [Example 114] | < 200 | > 500 |
| C[C@]1(C(N)=O)COc2c1cc([C@@](O)(CNC(=O)c1cc(O)c3ncccc3c1)C(F)(F)F)nc2-c1ccc(F)cc1 [Example 363] |  | < 500 |
| COc1cc(C(=O)NC[C@](O)(c2cc3c(c(-c4ccc(F)cc4)n2)OC[C@]3(C)C(N)=O)C(F)(F)F)ccc1OCCN1CCOCC1 [Example 188] | > 200 |  |
| Cn1cnc2cc(C(=O)NC[C@](O)(c3cc4c(c(-c5ccc(F)cc5)n3)OC[C@]4(C)C(N)=O)C(F)(F)F)ccc21 [Example 333] | > 200 |  |
| COc1cc(C(=O)NC[C@](O)(c2cc3c(c(-c4ccc(F)cc4)n2)OC[C@]3(C)CNc2ccccc2)C(F)(F)F)ccc1OCCO [Example 5] | > 200 |  |
| Cn1cnc2ccc(C(=O)NC[C@](O)(c3cc4c(c(-c5ccc(F)cc5)n3)OC[C@]4(C)C(N)=O)C(F)(F)F)cc21 [Example 334] | > 200 |  |
| C[C@]1(C(N)=O)COc2c1cc([C@@](O)(CNC(=O)c1cc(NS(=O)(=O)C3CC3)c3ncccc3c1)C(F)(F)F)nc2-c1ccc(F)cc1 [Example 395] | > 200 |  |
| C[C@]1(C(N)=O)COc2c1cc([C@@](O)(CNC(=O)c1cc(OCC(=O)Nc3ccccc3)c3ncccc3c1)C(F)(F)F)nc2-c1ccc(F)cc1 [Example 371] | < 200 |  |
| CN1Cc2cc(C(=O)NC[C@](O)(c3cc4c(c(-c5ccc(F)c(Cl)c5)n3)OC[C@]4(C)C(N)=O)C3CC3)ccc2C1=O [Example 645] | < 200 |  |
| C[C@]1(C(N)=O)COc2c1cc([C@@](O)(CNC(=O)c1cc(NC(=O)[C@H]3CCN3)c3ncccc3c1)C(F)(F)F)nc2-c1ccc(F)cc1 [Example 399] | > 200 |  |
| C[C@]1(C(N)=O)COc2c1cc([C@@](O)(CNC(=O)c1ccc3cccnc3c1)C(F)(F)F)nc2-c1ccc(F)cc1 [Example 233] | > 200 |  |
| Cc1nocc1-c1ccc(C(=O)NC[C@](O)(c2cc3c(c(-c4ccc(F)cc4)n2)OC[C@]3(C)C(N)=O)C(F)(F)F)cc1OC1CC1 [Example 181] | < 200 |  |
| C[C@]1(C(N)=O)COc2c1cc([C@@](O)(CNC(=O)c1ccc3ncccc3n1)C(F)(F)F)nc2-c1ccc(F)cc1 [Example 238] | > 200 |  |
| COc1cccc(CC(=O)NC[C@](O)(c2cc3c(c(-c4ccc(F)cc4)n2)OC[C@]3(C)C(N)=O)C(F)(F)F)c1 [Example 594] | > 200 |  |
| C[C@]1(C(N)=O)COc2c1cc([C@@](O)(CNC(=O)c1ccc(OC3CC3)c(-c3ccc(=O)[nH]c3)c1)C(F)(F)F)nc2-c1ccc(F)cc1 [Example 132] | > 200 |  |
| C[C@]1(C(N)=O)COc2c1cc([C@@](O)(CNC(=O)c1ccc3c(c1)OC(F)(F)O3)C(F)(F)F)nc2-c1ccc(F)cc1 [Example 66] | > 200 |  |
| C[C@]1(CNCC2CC2)COc2c1cc([C@@](O)(CNC(=O)c1ccc3c(c1)OCCN3)C(F)(F)F)nc2-c1ccc(F)cc1 [Example 38] | > 200 |  |
| C[C@]1(C(N)=O)COc2c1cc([C@@](O)(CNC(=O)c1cc(NC(=O)NC3CNC3)c3ncccc3c1)C(F)(F)F)nc2-c1ccc(F)cc1 [Example 413] | > 200 |  |
| C[C@]1(C(N)=O)COc2c1cc([C@@](O)(CNC(=O)c1ccc(C#N)c(F)c1)C(F)(F)F)nc2-c1ccc(F)cc1 [Example 320] | > 200 |  |
| Cc1cnc2c(OCC(N)=O)cc(C(=O)NC[C@](O)(c3cc4c(c(-c5ccc(F)cc5)n3)OC[C@]4(C)C(=O)NCC(C)(C)O)C(F)(F)F)cc2c1 [Example 507] | < 200 |  |
